The nature of data set [1]: In vitro plasma stability (half-life) in freshly collected mouse blood, LC-MS/MS. It counts as in vitro ADME. To be noted: up to 8 hours at 37°C in Swiss (CD-I) mouse blood, analyte quantified in the plasma fraction. How it is done:
In vitro plasma stability (i.e. half-life or t1/2) of the peptides of the invention was also assessed. Briefly, each peptide was incubated up to 8 hours at 37°C in freshly collected Swiss (CD-I) mouse blood and the analyte was quantified in the plasma fraction at several time-points using a liquid chromatography-tandem mass spectrometry (LC-MS/MS) analytical method. […]

Data set [2] is described as follows: In situ brain perfusion, cerebral transfer coefficient (Kin). The conditions noted are these: in situ brain perfusion 2-5 min, perfusate flow rate 2 ml/min. It counts as in vivo, mouse. How it is done:
The in situ brain perfusion technique (in adult male OF1 mouse) is used to illustrate passage in the brain across the BBB.
Radioactive peptides with high specific radioactivity (RAS, up to 100 Ci/mmol) are prepared by a strategy of acylation of the N-term amine function by tritiated propionic (or propanoic) anhydride or tritiated N-propionyl-succinimide (NPS).
The techniques briefly summarized below were developed previously to study the distribution in the brain of active substances and, in particular, the role of the BBB and, more particularly, of LDLR in the penetration of these molecules in the brain. In situ brain perfusion techniques are among the most technically demanding and the most difficult to perform in the mouse. […]
This strategy of in situ brain perfusion normally carried out in the rat was adapted for mouse (Dagenais et al., 2000, J Cereb Blood Flow Metab., 20(2), 381-6) in order to broaden its application for evaluating the parameters of transport kinetics at the BBB and the blood-retinal barrier, and this also in transgenic and KO mutant mice for the receptors, enzymes or transporters of active substances. […] The duration of the fixed flow-rate perfusion is monitored. […]

Experimental findings from patent EP2908837B1, “COMPOSITIONS FOR DRUG DELIVERY” (priority 2012, dated 2014) are described below.

Each structure is given as a SMILES string. Non-standard residues stand in square brackets, D forms with d. Residues, ends and D or L forms follow the SMILES beside them.

As for `CSCC[C@@H]1NC(=O)[C@H](N)CSSC(C)(C)[C@@H](C(=O)O)NC(=O)CNC(=O)[C@H](CCCNC(=N)N)NC(=O)[C@H](CC(C)C)NC(=O)[C@H](CCCNC(=N)N)NC(=O)[C@@H]2CCCCN2C1=O` [SEQ ID NO: 4, (D)-Cys-Met-Pip-Arg-Leu-Arg-Gly-Pen], in data set [1], the half-life – broadly, the time needed for the level to fall by half in the phase considered – is 3.9 h.

Take `CSCC[C@@H]1NC(=O)[C@H](N)CSSC(C)(C)[C@@H](C(=O)O)NC(=O)CNC(=O)[C@H](CCCNC(=N)N)NC(=O)[C@H](CC(C)C)NC(=O)[C@H](CCCNC(=N)N)NC(=O)[C@@H]2CSCN2C1=O` [SEQ ID NO: 1, (D)-Cys-Met-Thz-Arg-Leu-Arg-Gly-Pen]: the half-life in data set [1] was 4 h.

As for `CSCC[C@@H]1NC(=O)[C@H](N)CSSC[C@@H](C(=O)O)NC(=O)CN(C)C(=O)[C@H](CCCNC(=N)N)NC(=O)[C@H](CC(C)C)NC(=O)[C@H](CCCNC(=N)N)NC(=O)[C@@H]2CCCCN2C1=O` [SEQ ID NO: 3, (D)-Cys-Met-Pip-Arg-Leu-Arg-Sar-Cys], in data set [1], the half-life is 5.9 h.

As to `CC(C)C[C@H](NC(=O)[C@H](Cc1ccccc1)NC(=O)CNC(=O)[C@@H](C)NC(=O)[C@@H](N)Cc1ccc(O)cc1)C(=O)N[C@@H](CCCNC(=N)N)C(=O)O` [Dalargine] (H-Y[dA]GFLR-OH), the “Kin (transfer coefficient)” value in data set [2] is on record as “≈ 0.9 x 10^-4 ml/s/g”.

In data set [1], `CSCC[C@@H]1NC(=O)[C@H](N)CSSC(C)(C)[C@@H](C(=O)O)NC(=O)CN(C)C(=O)[C@H](CCCNC(=N)N)NC(=O)[C@H](CC(C)C)NC(=O)[C@H](CCCNC(=N)N)NC(=O)[C@@H]2CSCN2C1=O` [SEQ ID NO: 2, (D)-Cys-Met-Thz-Arg-Leu-Arg-Sar-Pen] had a half-life of 4.9 h.

Consider `CSCC[C@@H]1NC(=O)[C@H](N)CSSC(C)(C)[C@@H](C(=O)O)NC(=O)CN(C)C(=O)[C@H](CCCNC(=N)N)NC(=O)[C@H](CC(C)C)NC(=O)[C@H](CCCNC(=N)N)NC(=O)[C@@H]2CCCCN2C1=O` [SEQ ID NO: 5, (D)-Cys-Met-Pip-Arg-Leu-Arg-Sar-Pen], for which the half-life in data set [1] was 9.2 h.
